Article PMC5218480 (PLoS ONE, 2017)

Tested on: MV-4-11 cells
Experiment: Gene expression microarray analysis (Affymetrix PrimeView) and GSEA
Assay type: cell-based, human
Parameters: RFU PODN (11730768_x_at) / Fold change /veh PODN (11730768_x_at) / RFU LINC00158 (11744669_a_at) / Fold change /veh LINC00158 (11744669_a_at) / RFU DUSP10 (11751237_a_at) / Fold change /veh DUSP10 (11751237_a_at) / RFU ID3 (11757404_x_at) / Fold change /veh ID3 (11757404_x_at) / RFU PLEKHG5 (11737974_s_at) / Fold change /veh PLEKHG5 (11737974_s_at) / RFU LRRC4B (11730491_at) / Fold change /veh LRRC4B (11730491_at) / RFU GIMAP4 (11747438_a_at) / Fold change /veh GIMAP4 (11747438_a_at) / RFU KRT8 (11758183_x_at) / Fold change /veh KRT8 (11758183_x_at) / RFU CNN1 (11734310_a_at) / Fold change /veh CNN1 (11734310_a_at) / RFU VPS37D (11726825_at) / Fold change /veh VPS37D (11726825_at) / RFU C10orf10 (11716522_x_at) / Fold change /veh C10orf10 (11716522_x_at) / RFU KIR2DL2 /// KIR2DL4 /// KIR2DL5A /// KIR2DL5B /// KIR2DS1 /// KIR2DS2 /// KIR2DS3 /// KIR2DS4 /// KIR3DL3 /// KIR3DL3 /// KIR3DS1 (11738374_at) / Fold change /veh KIR2DL2 /// KIR2DL4 /// KIR2DL5A /// KIR2DL5B /// KIR2DS1 /// KIR2DS2 /// KIR2DS3 /// KIR2DS4 /// KIR3DL3 /// KIR3DL3 /// KIR3DS1 (11738374_at) / RFU C1QL1 (11718748_at) / Fold change /veh C1QL1 (11718748_at) / RFU TMPRSS4 (11747572_a_at) / Fold change /veh TMPRSS4 (11747572_a_at) / RFU HAMP (11756126_x_at) / Fold change /veh HAMP (11756126_x_at) / RFU RNFT2 (11725882_a_at) / Fold change /veh RNFT2 (11725882_a_at) / RFU NR4A2 (11747474_a_at) / Fold change /veh NR4A2 (11747474_a_at) / RFU ABCC12 (11746883_a_at) / Fold change /veh ABCC12 (11746883_a_at) / RFU TMEM136 (11760407_x_at) / Fold change /veh TMEM136 (11760407_x_at) / RFU CLDN22 /// WWC2 (11732394_at) / Fold change /veh CLDN22 /// WWC2 (11732394_at) / RFU HLA-DPB1 (11760878_x_at) / Fold change /veh HLA-DPB1 (11760878_x_at) / RFU SPINT1 (11716480_a_at) / Fold change /veh SPINT1 (11716480_a_at) / RFU GAP43 (11754022_s_at) / Fold change /veh GAP43 (11754022_s_at) / RFU A4GNT (11735810_at) / Fold change /veh A4GNT (11735810_at) / RFU PRB3 (11715151_x_at) / Fold change /veh PRB3 (11715151_x_at) / RFU TUBB4B (11761932_at) / Fold change /veh TUBB4B (11761932_at) / RFU CAPN14 (11732068_a_at) / Fold change /veh CAPN14 (11732068_a_at) / RFU TMCC2 (11721928_a_at) / Fold change /veh TMCC2 (11721928_a_at) / RFU IRGQ (11745062_a_at) / Fold change /veh IRGQ (11745062_a_at) / RFU FAM174B (11720279_a_at) / Fold change /veh FAM174B (11720279_a_at) / RFU TMPRSS4 (11748680_a_at) / Fold change /veh TMPRSS4 (11748680_a_at) / RFU FAM212B (11763350_a_at) / Fold change /veh FAM212B (11763350_a_at) / RFU PLEKHG5 (11743358_a_at) / Fold change /veh PLEKHG5 (11743358_a_at) / RFU ZSCAN30 (11745921_a_at) / Fold change /veh ZSCAN30 (11745921_a_at) / RFU CMKLR1 (11741424_a_at) / Fold change /veh CMKLR1 (11741424_a_at) / RFU LOC101060620 /// MAPK8IP1 (11723275_at) / Fold change /veh LOC101060620 /// MAPK8IP1 (11723275_at) / RFU SPTSSB (11747773_x_at) / Fold change /veh SPTSSB (11747773_x_at) / RFU PRSS12 (11739890_at) / Fold change /veh PRSS12 (11739890_at) / RFU BIN1 (11741810_x_at) / Fold change /veh BIN1 (11741810_x_at) / RFU WNT11 (11732464_a_at) / Fold change /veh WNT11 (11732464_a_at) / RFU C10orf10 (11716521_a_at) / Fold change /veh C10orf10 (11716521_a_at) / RFU C5orf56 (11738089_at) / Fold change /veh C5orf56 (11738089_at) / RFU CYB561 (11721691_x_at) / Fold change /veh CYB561 (11721691_x_at) / RFU ANKRD19P (11752326_a_at) / Fold change /veh ANKRD19P (11752326_a_at) / RFU OR2T12 /// OR2T33 /// OR2T8 (11738714_s_at) / Fold change /veh OR2T12 /// OR2T33 /// OR2T8 (11738714_s_at) / RFU VCAN (11748164_a_at) / Fold change /veh VCAN (11748164_a_at) / RFU JSRP1 (11732532_at) / Fold change /veh JSRP1 (11732532_at) / RFU KRTAP10-11 (11738290_x_at) / Fold change /veh KRTAP10-11 (11738290_x_at) / RFU MYO3A (11730013_a_at) / Fold change /veh MYO3A (11730013_a_at) / RFU EBF3 (11725865_a_at) / Fold change /veh EBF3 (11725865_a_at) / RFU CAMK2N1 (11719241_x_at) / Fold change /veh CAMK2N1 (11719241_x_at) / RFU C5orf56 (11738088_a_at) / Fold change /veh C5orf56 (11738088_a_at) / RFU OLFML3 (11715873_a_at) / Fold change /veh OLFML3 (11715873_a_at) / RFU LOC100653217 /// NTM (11731650_a_at) / Fold change /veh LOC100653217 /// NTM (11731650_a_at) / RFU MAPK11 (11762145_a_at) / Fold change /veh MAPK11 (11762145_a_at) / RFU FIZ1 (11724087_x_at) / Fold change /veh FIZ1 (11724087_x_at) / RFU OASL (11726364_x_at) / Fold change /veh OASL (11726364_x_at) / RFU SOX15 (11748057_x_at) / Fold change /veh SOX15 (11748057_x_at) / RFU CD79A (11719716_a_at) / Fold change /veh CD79A (11719716_a_at) / RFU HIST1H1D (11736915_at) / Fold change /veh HIST1H1D (11736915_at) / RFU CASKIN2 (11723855_a_at) / Fold change /veh CASKIN2 (11723855_a_at) / RFU LOC730098 (11760151_x_at) / Fold change /veh LOC730098 (11760151_x_at) / RFU OR4N2 (11742367_at) / Fold change /veh OR4N2 (11742367_at) / RFU PRRT2 (11749266_a_at) / Fold change /veh PRRT2 (11749266_a_at) / RFU SNX32 (11753110_a_at) / Fold change /veh SNX32 (11753110_a_at) / RFU CDHR5 (11726645_a_at) / Fold change /veh CDHR5 (11726645_a_at) / RFU RCAN1 (11760418_a_at) / Fold change /veh RCAN1 (11760418_a_at) / RFU FAM167A (11723789_a_at) / Fold change /veh FAM167A (11723789_a_at) / RFU FAM26E (11764081_at) / Fold change /veh FAM26E (11764081_at) / RFU ISYNA1 (11749810_s_at) / Fold change /veh ISYNA1 (11749810_s_at) / RFU ACY1 (11761880_at) / Fold change /veh ACY1 (11761880_at) / RFU 11764098_at / Fold change /veh 11764098_at / RFU SAMD14 (11745864_x_at) / Fold change /veh SAMD14 (11745864_x_at) / RFU NPB (11741838_a_at) / Fold change /veh NPB (11741838_a_at) / RFU TMPRSS6 (11731388_a_at) / Fold change /veh TMPRSS6 (11731388_a_at) / RFU KRTAP10-2 (11738614_at) / Fold change /veh KRTAP10-2 (11738614_at) / RFU ARHGAP8 /// PRR5-ARHGAP8 (11727945_x_at) / Fold change /veh ARHGAP8 /// PRR5-ARHGAP8 (11727945_x_at) / RFU KRTAP5-7 /// NADSYN1 (11734609_at) / Fold change /veh KRTAP5-7 /// NADSYN1 (11734609_at) / RFU RASL12 (11751679_a_at) / Fold change /veh RASL12 (11751679_a_at) / RFU CDKN2B (11736163_a_at) / Fold change /veh CDKN2B (11736163_a_at) / RFU PRF1 (11729649_at) / Fold change /veh PRF1 (11729649_at) / RFU, ZNF638 /// ZNF638-IT1 / Fold change vs veh, ZNF638 /// ZNF638-IT1 / RFU, PANK3 / Fold change vs veh, PANK3 / RFU, SH3YL1 / Fold change vs veh, SH3YL1 / RFU, ZEB2 / Fold change vs veh, ZEB2 / RFU, NRIP1 / Fold change vs veh, NRIP1 / RFU, PTTG1IP / Fold change vs veh, PTTG1IP / RFU, CAPN2 / Fold change vs veh, CAPN2 / RFU, MED14 / Fold change vs veh, MED14 / RFU, SNORA58 / Fold change vs veh, SNORA58 / RFU, C1orf63 / Fold change vs veh, C1orf63 / RFU, LRRFIP1 / Fold change vs veh, LRRFIP1 / RFU, NDUFAF7 / Fold change vs veh, NDUFAF7 / RFU, SLC12A2 / Fold change vs veh, SLC12A2 / RFU, IBTK / Fold change vs veh, IBTK / RFU, ESF1 / Fold change vs veh, ESF1 / Fold change vs veh, TMEM50B / RFU, TAOK1 / Fold change vs veh, TAOK1 / RFU, ACBD3 / Fold change vs veh, ACBD3 / RFU, TMA16 / Fold change vs veh, TMA16 / RFU, RWDD3 / Fold change vs veh, RWDD3 / RFU, BCAT1 / Fold change vs veh, BCAT1 / RFU, EDEM3 / Fold change vs veh, EDEM3 / RFU, TMEM33 / Fold change vs veh, TMEM33 / RFU, WDR75 / Fold change vs veh, WDR75 / RFU, AHCTF1 / Fold change vs veh, AHCTF1 / RFU, TFRC / Fold change vs veh, TFRC / RFU, ZDHHC17 / Fold change vs veh, ZDHHC17 / RFU, NOM1 / Fold change vs veh, NOM1 / RFU, ARL8B / Fold change vs veh, ARL8B / RFU, ZBTB11 / Fold change vs veh, ZBTB11 / RFU, TAMM41 / Fold change vs veh, TAMM41 / RFU, KIAA1704 /// LOC100996395 / Fold change vs veh, KIAA1704 /// LOC100996395 / RFU, ING1 / Fold change vs veh, ING1 / RFU, TRMT61B / Fold change vs veh, TRMT61B / RFU, FUBP3 / Fold change vs veh, FUBP3 / RFU, TP53 / Fold change vs veh, TP53 / RFU, TNKS2 / Fold change vs veh, TNKS2 / RFU, ZFP14 / Fold change vs veh, ZFP14 / RFU, ACTR2 / Fold change vs veh, ACTR2 / RFU, PPP3R1 / Fold change vs veh, PPP3R1 / RFU, PIK3R1 / Fold change vs veh, PIK3R1 / RFU, HNRNPA1 / Fold change vs veh, HNRNPA1 / RFU, RNF170 / Fold change vs veh, RNF170 / RFU, ZNF28 / Fold change vs veh, ZNF28 / RFU, RNGTT / Fold change vs veh, RNGTT / RFU, OGT / Fold change vs veh, OGT / RFU, BRD1 / Fold change vs veh, BRD1 / RFU, MARS / Fold change vs veh, MARS / RFU, ZNF655 / Fold change vs veh, ZNF655 / RFU, FAHD1 / Fold change vs veh, FAHD1 / RFU, BDP1 / Fold change vs veh, BDP1 / RFU, LRRCC1 / Fold change vs veh, LRRCC1 / RFU, ARID1A / Fold change vs veh, ARID1A / RFU, ZNF146 / Fold change vs veh, ZNF146 / RFU, ZNF330 / Fold change vs veh, ZNF330 / RFU, GPN3 / Fold change vs veh, GPN3 / RFU, C9orf123 / Fold change vs veh, C9orf123 / RFU, N4BP2L2 / Fold change vs veh, N4BP2L2 / RFU, ARFIP1 / Fold change vs veh, ARFIP1 / RFU, FAM179B / Fold change vs veh, FAM179B / RFU, BCL10 / Fold change vs veh, BCL10 / RFU, UHRF1BP1L / Fold change vs veh, UHRF1BP1L / RFU, BET1 / Fold change vs veh, BET1 / RFU, CNOT2 / Fold change vs veh, CNOT2 / RFU, ZNF268 / Fold change vs veh, ZNF268 / Fold change vs veh, ZNF507 / RFU, DGCR2 / Fold change vs veh, DGCR2 / RFU, WDSUB1 / Fold change vs veh, WDSUB1 / Fold change vs veh, HSP90B1 /// MIR3652 / RFU, ADSS / Fold change vs veh, ADSS / RFU, GK / Fold change vs veh, GK / RFU, ZNF148 / Fold change vs veh, ZNF148 / RFU, TAF9 / Fold change vs veh, TAF9 / RFU, SLC1A5 / Fold change vs veh, SLC1A5 / RFU, SLMO2 / Fold change vs veh, SLMO2 / RFU, ABCC4 / Fold change vs veh, ABCC4 / RFU, LOC101060439 /// RAP1B / Fold change vs veh, LOC101060439 /// RAP1B / RFU, RFX7 / Fold change vs veh, RFX7 / RFU, GTPBP10 / Fold change vs veh, GTPBP10 / RFU, CNEP1R1 / Fold change vs veh, CNEP1R1 / RFU, BIVM-ERCC5 /// ERCC5 / Fold change vs veh, BIVM-ERCC5 /// ERCC5 / RFU, ILF3 / Fold change vs veh, ILF3 / RFU 11762660_at / Fold change /veh 11762660_at / RFU VCAN (11757783_s_at) / Fold change /veh VCAN (11757783_s_at) / RFU DDX43 (11728927_at) / Fold change /veh DDX43 (11728927_at) / RFU KRT8 (11758188_x_at) / Fold change /veh KRT8 (11758188_x_at) / RFU NKD1 (11759106_at) / Fold change /veh NKD1 (11759106_at) / RFU SRD5A1 (11742802_a_at) / Fold change /veh SRD5A1 (11742802_a_at) / RFU TPSAB1 /// TPSB2 (11721975_s_at) / Fold change /veh TPSAB1 /// TPSB2 (11721975_s_at) / RFU GSTM3 (11746129_a_at) / Fold change /veh GSTM3 (11746129_a_at) / RFU IL23R (11737362_x_at) / Fold change /veh IL23R (11737362_x_at) / RFU TMEM51 (11727254_a_at) / Fold change /veh TMEM51 (11727254_a_at) / RFU PIWIL2 (11732686_x_at) / Fold change /veh PIWIL2 (11732686_x_at) / RFU ORM1 (11744905_x_at) / Fold change /veh ORM1 (11744905_x_at) / RFU CCDC152 (11743942_at) / Fold change /veh CCDC152 (11743942_at) / RFU ECM1 (11717891_a_at) / Fold change /veh ECM1 (11717891_a_at) / RFU IL23R (11748794_a_at) / Fold change /veh IL23R (11748794_a_at) / RFU TNFAIP8L3 (11732012_x_at) / Fold change /veh TNFAIP8L3 (11732012_x_at) / RFU MBOAT4 (11741988_at) / Fold change /veh MBOAT4 (11741988_at) / RFU 11764193_at / Fold change /veh 11764193_at / RFU TMEM53 (11763286_at) / Fold change /veh TMEM53 (11763286_at) / RFU MAGEB2 (11727129_at) / Fold change /veh MAGEB2 (11727129_at) / RFU TMEM200A (11744735_a_at) / Fold change /veh TMEM200A (11744735_a_at) / RFU CCDC152 (11751479_a_at) / Fold change /veh CCDC152 (11751479_a_at) / RFU FAM211A (11726209_a_at) / Fold change /veh FAM211A (11726209_a_at) / RFU RGS16 (11746705_a_at) / Fold change /veh RGS16 (11746705_a_at) / RFU VCAN (11755009_s_at) / Fold change /veh VCAN (11755009_s_at) / RFU RHOB (11743442_s_at) / Fold change /veh RHOB (11743442_s_at) / RFU RGS16 (11720943_a_at) / Fold change /veh RGS16 (11720943_a_at) / RFU RGS16 (11720944_at) / Fold change /veh RGS16 (11720944_at) / RFU, VPS4B / Fold change vs veh, VPS4B / RFU, CREB1 / Fold change vs veh, CREB1 / RFU, DNAJC13 / Fold change vs veh, DNAJC13 / RFU, GNAQ / Fold change vs veh, GNAQ / RFU, CDK5R1 / Fold change vs veh, CDK5R1 / RFU, ZRANB3 / Fold change vs veh, ZRANB3 / RFU, CUL4A / Fold change vs veh, CUL4A / RFU, CCNY / Fold change vs veh, CCNY / RFU, UFL1 / Fold change vs veh, UFL1 / RFU, COG3 / Fold change vs veh, COG3 / RFU, DIAPH2 / Fold change vs veh, DIAPH2 / RFU, SKA2 / Fold change vs veh, SKA2 / RFU, AFF3 / Fold change vs veh, AFF3 / RFU, LMF1 / Fold change vs veh, LMF1 / RFU, IPO11 / Fold change vs veh, IPO11 / RFU, DFFB / Fold change vs veh, DFFB / RFU, FOXP1 / Fold change vs veh, FOXP1 / RFU, CARD8 / Fold change vs veh, CARD8 / RFU, STRN3 / Fold change vs veh, STRN3 / RFU, ADK / Fold change vs veh, ADK / RFU, RASSF2 / Fold change vs veh, RASSF2 / RFU, WIPF1 / Fold change vs veh, WIPF1 / RFU, LARP1B / Fold change vs veh, LARP1B / RFU, RASA1 / Fold change vs veh, RASA1 / RFU, RB1 / Fold change vs veh, RB1 / RFU, PPFIA1 / Fold change vs veh, PPFIA1 / RFU, MAT2A / Fold change vs veh, MAT2A / RFU, CCT5 / Fold change vs veh, CCT5 / RFU, WDR92 / Fold change vs veh, WDR92 / RFU, CUX1 / Fold change vs veh, CUX1 / RFU, TTC7A / Fold change vs veh, TTC7A / RFU, TMEM135 / Fold change vs veh, TMEM135 / RFU, DEPTOR / Fold change vs veh, DEPTOR / RFU, CPM / Fold change vs veh, CPM / RFU, DNAJB6 / Fold change vs veh, DNAJB6 / RFU, CACNA2D3 / Fold change vs veh, CACNA2D3 / RFU, DTX4 / Fold change vs veh, DTX4 / RFU, TFCP2 / Fold change vs veh, TFCP2 / RFU, GMCL1 /// GMCL1P1 / Fold change vs veh, GMCL1 /// GMCL1P1 / RFU, AEBP2 / Fold change vs veh, AEBP2 / RFU, SNHG1 /// SNORD22 /// SNORD25 /// SNORD26 /// SNORD27 /// SNORD28 /// SNORD29 /// SNORD31 / Fold change vs veh, SNHG1 /// SNORD22 /// SNORD25 /// SNORD26 /// SNORD27 /// SNORD28 /// SNORD29 /// SNORD31 / Fold change (Aza/veh), C12orf56 (ProbeSet 11735607_a_at) / Fold change (ACY-1035/veh), C12orf56 (ProbeSet 11735607_a_at) / Fold change (Aza/veh), FGFR1OP (ProbeSet 11751329_s_at) / Fold change (ACY-1035/veh), FGFR1OP (ProbeSet 11751329_s_at) / Fold change (Aza/veh), VPS36 (ProbeSet 11739960_a_at) / Fold change (ACY-1035/veh), VPS36 (ProbeSet 11739960_a_at) / RFU SYPL1 (11715823_x_at) / Fold change /veh SYPL1 (11715823_x_at) / RFU IGFBP7 (11715501_s_at) / Fold change /veh IGFBP7 (11715501_s_at) / RFU REEP3 (11722064_at) / Fold change /veh REEP3 (11722064_at) / RFU IGLL1 (11728026_x_at) / Fold change /veh IGLL1 (11728026_x_at): dose or concentration left out as unconfirmed
Details: ProbeSet 11739263_x_at; LIST D

Question: How did the “RFU, VPS4B” value turn out when `Nc1ccc(-c2cccs2)cc1NC(=O)c1ccc2c(c1)cc(C1CC1)n2CCN1CCOCC1` [ACY-1035] was run?
Answer: 70.19 RFU
